Molecular target: Glutamate NMDA receptor
Assay: Displacement of [3H]TCP from NMDA receptor of rat brain membranes
Type: cell membranes, Membrane

Row | Ki [nM] | SMILES
1 | 12 | Nc1ccc2c(c1)C1C3CCCC3C2N2CCCCC12 (configuration not stated)
2 | 134 | c1ccc2c(c1)C1C3CCCCC3C2N2CCCCC12 (configuration not stated)
3 | 2.3 | Oc1ccc2c(c1)C1C3CCCC3C2N2CCCCC12 (configuration not stated)
4 | 23 | Oc1ccc2c(c1)C1C3CCCC3C2C2CCCCN21 (configuration not stated)
5 | 600 | c1ccc2c(c1)C1C3OCCC3C2N2CCCCC12 (configuration not stated)
6 | 41 | Brc1ccc2c(c1)C1C3CCCC3C2N2CCCCC12 (configuration not stated)
7 | 2.3 | Oc1cccc2c1C1C3CCCC3C2N2CCCCC12 (configuration not stated)
8 | 20 | Fc1ccc2c(c1)C1C3CCCC3C2N2CCCCC12 (configuration not stated)

Row | SMILES | Ki [nM]
9 | c1ccc2c(c1)C1C3CCCC3C2N2CCCCC12 (configuration not stated) | 15
10 | CC12c3ccccc3C(C3CCCC31)N1CCCCC12 (configuration not stated) | 46
11 | c1ccc2c(c1)C1CCC2N2CCCCC12 (configuration not stated) | 240
12 | c1ccc2c(c1)CC1CCCCN1C2 (configuration not stated) | 10000

From ChEMBL document CHEMBL1128423, “Synthesis and evaluation of 6,11-ethanohexahydrobenzo[b]quinolizidines: a new class of noncompetitive N-methyl-D-aspartate antagonists” (J Med Chem, 1995)
